According to PubChem BioAssay AID180 (DTP/NCI, 2004):
“And” between values parts separate entries of the source, which are not always exact repeats. Equal values may be shown once.

Tested on: BDF1 mice, Adenocarcinoma 755 s.c., tumor weight T/C
Experiment: NCI In Vivo Anticancer Drug Screen. Data for tumor model Adenocarcinoma 755 (subcutaneous) in B6D2F1 (BDF1) mice
Conditions: endpoint: mean tumor weight, higher = larger tumour
How it was run: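 Tumor-bearing mice receive test compound while controls get vehicle alone. Antitumor effect is scored from survival or tumor dimensions as a T/C quotient.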

[1] = dose: 300.0 mg/kg/injection, schedule: Q01DX011 (ip), vehicle: methylcellulose (MC)

## Clc1ncnc2nc[nH]c12
dose: 1.87 mg/kg/injection, schedule: Q01DX006 (iv), vehicle: carboxymethylcellulose (CMC)
  T/C: 96 % of control
dose: 1.87 mg/kg/injection, schedule: Q01DX011 (im), vehicle: carboxymethylcellulose (CMC)
  T/C: 47 % of control
dose: 1.87 mg/kg/injection, schedule: Q01DX011 (ip), vehicle: carboxymethylcellulose (CMC)
  T/C: 83 % of control
dose: 1.87 mg/kg/injection, schedule: Q01DX011 (sc), vehicle: carboxymethylcellulose (CMC)
  T/C: 103 % of control
dose: 2.5 mg/kg/injection, schedule: Q01DX011 (ip), vehicle: carboxymethylcellulose (CMC)
  T/C: 66 % of control
dose: 3.12 mg/kg/injection, schedule: Q01DX011 (oral), vehicle: carboxymethylcellulose (CMC)
  T/C: 110 % of control
dose: 3.12 mg/kg/injection, schedule: Q#A X022 (ip), vehicle: carboxymethylcellulose (CMC)
  T/C: 48 % of control
dose: 3.75 mg/kg/injection, schedule: Q01DX006 (iv), vehicle: carboxymethylcellulose (CMC)
  T/C: 94 % of control
dose: 3.75 mg/kg/injection, schedule: Q01DX011 (im), vehicle: carboxymethylcellulose (CMC)
  T/C: 83 % of control
dose: 3.75 mg/kg/injection, schedule: Q01DX011 (ip), vehicle: carboxymethylcellulose (CMC)
  T/C: 62 % of control
dose: 3.75 mg/kg/injection, schedule: Q01DX011 (sc), vehicle: carboxymethylcellulose (CMC)
  T/C: 76 % of control
dose: 5.0 mg/kg/injection, schedule: Q01DX011 (ip), vehicle: carboxymethylcellulose (CMC)
  T/C: 36 % of control and 58 % of control
dose: 5.0 mg/kg/injection, schedule: Q03DX004 (ip), vehicle: carboxymethylcellulose (CMC)
  T/C: 81 % of control
dose: 6.25 mg/kg/injection, schedule: Q01DX011 (oral), vehicle: carboxymethylcellulose (CMC)
  T/C: 55 % of control
dose: 6.25 mg/kg/injection, schedule: Q#A X022 (ip), vehicle: carboxymethylcellulose (CMC)
  T/C: 41 % of control
dose: 7.5 mg/kg/injection, schedule: Q01DX006 (iv), vehicle: carboxymethylcellulose (CMC)
  T/C: 82 % of control
dose: 7.5 mg/kg/injection, schedule: Q01DX011 (im), vehicle: carboxymethylcellulose (CMC)
  T/C: 22 % of control
dose: 7.5 mg/kg/injection, schedule: Q01DX011 (ip), vehicle: carboxymethylcellulose (CMC)
  T/C: 34 % of control
dose: 7.5 mg/kg/injection, schedule: Q01DX011 (sc), vehicle: carboxymethylcellulose (CMC)
  T/C: 28 % of control
dose: 10.0 mg/kg/injection, schedule: Q01DX011 (ip), vehicle: carboxymethylcellulose (CMC)
  T/C: 27 % of control
dose: 10.0 mg/kg/injection, schedule: Q01DX011 (ip), vehicle: methylcellulose (MC)
  T/C: 44 % of control
dose: 10.0 mg/kg/injection, schedule: Q03DX004 (ip), vehicle: carboxymethylcellulose (CMC)
  T/C: 66 % of control
dose: 12.5 mg/kg/injection, schedule: Q01DX011 (oral), vehicle: carboxymethylcellulose (CMC)
  T/C: 11 % of control
dose: 12.5 mg/kg/injection, schedule: Q#A X022 (ip), vehicle: carboxymethylcellulose (CMC)
  T/C: 8 % of control
dose: 15.0 mg/kg/injection, schedule: Q01DX006 (iv), vehicle: carboxymethylcellulose (CMC)
  T/C: 25 % of control
dose: 15.0 mg/kg/injection, schedule: Q01DX011 (ip), vehicle: carboxymethylcellulose (CMC)
  T/C: 13 % of control
dose: 15.0 mg/kg/injection, schedule: Q01DX011 (sc), vehicle: carboxymethylcellulose (CMC)
  T/C: 7 % of control
dose: 15.0 mg/kg/injection, schedule: Q03DX004 (ip), vehicle: carboxymethylcellulose (CMC)
  T/C: 55 % of control
dose: 18.75 mg/kg/injection, schedule: Q07DX002 (ip), vehicle: carboxymethylcellulose (CMC)
  T/C: 46 % of control
dose: 25.0 mg/kg/injection, schedule: Q01DX011 (oral), vehicle: carboxymethylcellulose (CMC)
  T/C: 2 % of control
dose: 25.0 mg/kg/injection, schedule: Q03DX004 (ip), vehicle: carboxymethylcellulose (CMC)
  T/C: 35 % of control
dose: 37.5 mg/kg/injection, schedule: Q01DX001 (ip), vehicle: carboxymethylcellulose (CMC)
  T/C: 49 % of control and 66 % of control
dose: 37.5 mg/kg/injection, schedule: Q07DX002 (ip), vehicle: carboxymethylcellulose (CMC)
  T/C: 16 % of control
dose: 50.0 mg/kg/injection, schedule: Q01DX011 (ip), vehicle: carboxymethylcellulose (CMC)
  T/C: 3 % of control
dose: 50.0 mg/kg/injection, schedule: Q01DX011 (ip), vehicle: methylcellulose (MC)
  T/C: 5 % of control
dose: 50.0 mg/kg/injection, schedule: Q01DX011 (sc), vehicle: carboxymethylcellulose (CMC)
  T/C: 1 % of control
dose: 50.0 mg/kg/injection, schedule: Q03DX004 (ip), vehicle: carboxymethylcellulose (CMC)
  T/C: 5 % of control
dose: 75.0 mg/kg/injection, schedule: Q01DX001 (ip), vehicle: carboxymethylcellulose (CMC)
  T/C: 18 % of control and 42 % of control
dose: 75.0 mg/kg/injection, schedule: Q03DX004 (ip), vehicle: carboxymethylcellulose (CMC)
  T/C: 1 % of control
dose: 75.0 mg/kg/injection, schedule: Q07DX002 (ip), vehicle: carboxymethylcellulose (CMC)
  T/C: 1 % of control
dose: 100.0 mg/kg/injection, schedule: Q01DX011 (ip), vehicle: carboxymethylcellulose (CMC)
  T/C: 1 % of control and 4 % of control
dose: 100.0 mg/kg/injection, schedule: Q01DX011 (ip), vehicle: methylcellulose (MC)
  T/C: 6 % of control
dose: 150.0 mg/kg/injection, schedule: Q01DX001 (ip), vehicle: carboxymethylcellulose (CMC)
  T/C: 24 % of control and 29 % of control
dose: 150.0 mg/kg/injection, schedule: Q07DX002 (ip), vehicle: carboxymethylcellulose (CMC)
  T/C: 1 % of control
dose: 175.0 mg/kg/injection, schedule: Q01DX001 (ip), vehicle: carboxymethylcellulose (CMC)
  T/C: 8 % of control and 17 % of control
dose: 175.0 mg/kg/injection, schedule: Q07DX002 (ip), vehicle: carboxymethylcellulose (CMC)
  T/C: 4 % of control
[1]
  T/C: 4 % of control
dose: 350.0 mg/kg/injection, schedule: Q01DX001 (ip), vehicle: carboxymethylcellulose (CMC)
  T/C: 5 % of control and 8 % of control

## CCCn1cnc2c(SC(C)C)nc(N)nc21
dose: 3.1 mg/kg/injection, schedule: Q01DX011 (ip), vehicle: methylcellulose (MC)
  T/C: 16 % of control
dose: 6.25 mg/kg/injection, schedule: Q01DX011 (ip), vehicle: methylcellulose (MC)
  T/C: 2 % of control

## O=c1[nH]c2[nH]c(S(=O)(=O)O)nc(=S)c2[nH]1
dose: 75.0 mg/kg/injection, schedule: Q01DX011 (ip), vehicle: methylcellulose (MC)
  T/C: 43 % of control
dose: 150.0 mg/kg/injection, schedule: Q01DX011 (ip), vehicle: methylcellulose (MC)
  T/C: 55 % of control
[1]
  T/C: 67 % of control
dose: 600.0 mg/kg/injection, schedule: Q01DX011 (ip), vehicle: methylcellulose (MC)
  T/C: 28 % of control

## COc1ccc(/C=N/Nc2nc3c([nH]2)c(=O)n(C)c(=O)n3C)cc1
dose: 30.0 mg/kg/injection, schedule: Q01DX011 (ip), vehicle: carboxymethylcellulose (CMC)
  T/C: 108 % of control
dose: 60.0 mg/kg/injection, schedule: Q01DX011 (ip), vehicle: carboxymethylcellulose (CMC)
  T/C: 94 % of control
dose: 480.0 mg/kg/injection, schedule: Q01DX011 (ip), vehicle: carboxymethylcellulose (CMC)
  T/C: 64 % of control

## NNC(=O)CCC(N)C(=O)O (stereo unspecified)
dose: 10.21 mg/kg/injection, schedule: Q01DX011 (ip), vehicle: carboxymethylcellulose (CMC)
  T/C: 121 % of control
dose: 13.0 mg/kg/injection, schedule: Q01DX011 (ip), vehicle: carboxymethylcellulose (CMC)
  T/C: 91 % of control
dose: 20.42 mg/kg/injection, schedule: Q01DX011 (ip), vehicle: carboxymethylcellulose (CMC)
  T/C: 96 % of control
dose: 26.0 mg/kg/injection, schedule: Q01DX011 (ip), vehicle: carboxymethylcellulose (CMC)
  T/C: 60 % of control
dose: 40.85 mg/kg/injection, schedule: Q01DX011 (ip), vehicle: carboxymethylcellulose (CMC)
  T/C: 151 % of control
dose: 43.05 mg/kg/injection, schedule: Q01DX011 (ip), vehicle: carboxymethylcellulose (CMC)
  T/C: 97 % of control
dose: 52.0 mg/kg/injection, schedule: Q01DX011 (ip), vehicle: carboxymethylcellulose (CMC)
  T/C: 70 % of control
dose: 81.7 mg/kg/injection, schedule: Q01DX011 (ip), vehicle: carboxymethylcellulose (CMC)
  T/C: 67 % of control
dose: 86.1 mg/kg/injection, schedule: Q01DX011 (ip), vehicle: carboxymethylcellulose (CMC)
  T/C: 98 % of control
dose: 104.0 mg/kg/injection, schedule: Q01DX011 (ip), vehicle: carboxymethylcellulose (CMC)
  T/C: 56 % of control

## Cc1cnc(SCc2ccccc2)nc1N(C)C
dose: 15.0 mg/kg/injection, schedule: Q01DX011 (ip), vehicle: methylcellulose (MC)
  T/C: 57 % of control
dose: 62.0 mg/kg/injection, schedule: Q01DX011 (ip), vehicle: methylcellulose (MC)
  T/C: 60 % of control
dose: 125.0 mg/kg/injection, schedule: Q01DX011 (ip), vehicle: methylcellulose (MC)
  T/C: 65 % of control
dose: 250.0 mg/kg/injection, schedule: Q01DX011 (ip), vehicle: methylcellulose (MC)
  T/C: 50 % of control
